In patent US9029559B2, “Substituted 3-heteroaroylamino-propionic acid derivatives and their use as pharmaceuticals” (SANOFI, priority 2011, dated 2015):
pIC50: −log10 of the molar value.

biological target: Recombinant human cathepsin A (Homo sapiens (Human), UniProt P10619); assay: Cathepsin A inhibitory activity (cleavage of Bodipy FL-labeled bradykinin, microfluidic capillary electrophoresis); assay type: biochemical; conditions: read-out: Activity (IC50, cathepsin A inhibitory activity)
Sequence (P10619 29-326): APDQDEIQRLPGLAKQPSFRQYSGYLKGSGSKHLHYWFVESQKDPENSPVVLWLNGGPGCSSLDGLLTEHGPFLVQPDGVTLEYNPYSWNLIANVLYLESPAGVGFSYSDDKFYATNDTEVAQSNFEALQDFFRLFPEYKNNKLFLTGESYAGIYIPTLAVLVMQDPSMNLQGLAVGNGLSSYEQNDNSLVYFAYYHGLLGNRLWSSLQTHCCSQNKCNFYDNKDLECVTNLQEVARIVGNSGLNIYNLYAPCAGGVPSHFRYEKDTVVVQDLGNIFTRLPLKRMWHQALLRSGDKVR
Sequence (P10619 327-480): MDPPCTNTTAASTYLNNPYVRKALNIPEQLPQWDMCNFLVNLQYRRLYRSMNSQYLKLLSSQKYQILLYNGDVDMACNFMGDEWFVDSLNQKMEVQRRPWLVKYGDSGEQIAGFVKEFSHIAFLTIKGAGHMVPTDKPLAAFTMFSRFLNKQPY

| SMILES | pIC50 |
| --- | --- |
| Cc1ccccc1[C@H](CC(=O)O)NC(=O)c1cncc(-c2ccccc2)c1 [compound 15] | 5.67 |
| Cc1ccccc1[C@H](CC(=O)O)NC(=O)c1cc(-c2ccccc2)ccn1 [compound 39] | 5.97 |
| Cc1ccccc1[C@H](CC(=O)O)NC(=O)c1ccc(Oc2ccccc2)nc1 [compound 46] | 5.00 |
| Cc1ccccc1[C@H](CC(=O)O)NC(=O)c1cc(N2CCOCC2)ccn1 [compound 50] | 5.11 |
| Cc1ccccc1[C@H](CC(=O)O)NC(=O)c1cccc(N2CCCCC2)n1 [compound 54] | 5.05 |
| Cc1ccccc1[C@H](CC(=O)O)NC(=O)c1cncc(-c2ccc(Cl)cc2Cl)c1 [compound 61] | 5.29 |
| Cc1ccccc1[C@H](CC(=O)O)NC(=O)c1cncc(-c2ccccc2C(F)(F)F)c1 [compound 66] | 5.37 |
| Cc1ccccc1[C@H](CC(=O)O)NC(=O)c1cncc(-c2ccccc2F)c1 [compound 69] | 5.85 |
| Cc1ccccc1[C@H](CC(=O)O)NC(=O)c1cncc(-c2ccc(F)cc2F)c1 [compound 73] | 5.49 |
| Cc1ccccc1[C@H](CC(=O)O)NC(=O)c1cncc(-c2ccc3c(c2)OCO3)c1 [compound 76] | 5.09 |
| Cc1ccccc1[C@H](CC(=O)O)NC(=O)c1cncc(-c2cccc(F)c2F)c1 [compound 79] | 5.30 |
| Cc1ccccc1[C@H](CC(=O)O)NC(=O)c1ccnc(-c2ccccc2F)c1 [compound 97] | 5.57 |

Further lines, results first:

| pIC50 | SMILES |
| --- | --- |
| 5.40 | Cc1ccccc1[C@H](CC(=O)O)NC(=O)c1ccccn1 [compound 5] |
| 4.98 | Cc1ccccc1[C@H](CC(=O)O)NC(=O)c1cccnc1 [compound 8] |
| 5.14 | COc1cccnc1C(=O)N[C@@H](CC(=O)O)c1ccccc1C [compound 9] |
| 5.91 | Cc1cccc(C(=O)N[C@@H](CC(=O)O)c2ccccc2C)n1 [compound 10] |
| 5.14 | CNc1cncc(C(=O)N[C@@H](CC(=O)O)c2ccccc2C)n1 [compound 12] |
| 5.00 | Cc1ccccc1[C@H](CC(=O)O)NC(=O)c1cc(N(C)C)nc(N(C)C)n1 [compound 13] |
| 5.36 | Cc1ccnc(C(=O)N[C@@H](CC(=O)O)c2ccccc2C)c1 [compound 14] |
| 5.98 | COc1cc(C(=O)N[C@@H](CC(=O)O)c2ccccc2C)nc(OC)n1 [compound 16, (S)-3-[(2,6-Dimethoxy-pyrimidine-4-carbonyl)-amino]-3-o-tolyl-propionic acid] |
| 5.51 | Cc1ccccc1[C@H](CC(=O)O)NC(=O)c1ccc2cnccc2n1 [compound 17] |
| 5.51 | CCc1ccnc(C(=O)N[C@@H](CC(=O)O)c2ccccc2C)c1 [compound 18] |
| 5.38 | COc1cc(OC)nc(C(=O)N[C@@H](CC(=O)O)c2ccccc2C)n1 [compound 30] |
| 5.32 | COc1cccc(C(=O)N[C@@H](CC(=O)O)c2ccccc2C)n1 [compound 31] |
| 5.47 | Cc1ccccc1[C@H](CC(=O)O)NC(=O)c1ncccc1F [compound 33] |
| 5.29 | Cc1ccccc1[C@H](CC(=O)O)NC(=O)c1ccc2nc[nH]c2n1 [compound 34] |
| 5.64 | COc1cccc(-c2cccc(C(=O)N[C@@H](CC(=O)O)c3ccccc3C)n2)c1 [compound 43] |
| 5.92 | COc1ccccc1-c1cccc(C(=O)N[C@@H](CC(=O)O)c2ccccc2C)n1 [compound 44] |
| 5.51 | COc1ccc(-c2cccc(C(=O)N[C@@H](CC(=O)O)c3ccccc3C)n2)cc1 [compound 45] |
| 5.78 | Cc1ccccc1[C@H](CC(=O)O)NC(=O)c1cccc(F)n1 [compound 48] |
| 5.74 | Cc1cc(C)nc(C(=O)N[C@@H](CC(=O)O)c2ccccc2C)c1 [compound 51] |
| 5.43 | Cc1ccccc1[C@H](CC(=O)O)NC(=O)c1cc(CC(C)C)nc(N)n1 [compound 52] |
| 5.55 | Cc1ccccc1[C@H](CC(=O)O)NC(=O)c1nc(F)ccc1F [compound 53] |
| 5.28 | Cc1cc(C(=O)N[C@@H](CC(=O)O)c2ccccc2C)nc(C)n1 [compound 55] |
| 4.95 | Cc1ccccc1[C@H](CC(=O)O)NC(=O)c1cccc(-n2ccnc2)n1 [compound 56] |
| 4.94 | COc1ccc(-c2cncc(C(=O)N[C@@H](CC(=O)O)c3ccccc3C)c2)cc1 [compound 57] |
| 5.30 | COc1ccccc1-c1cncc(C(=O)N[C@@H](CC(=O)O)c2ccccc2C)c1 [compound 67] |
| 5.51 | Cc1cc(F)ccc1-c1cncc(C(=O)N[C@@H](CC(=O)O)c2ccccc2C)c1 [compound 82] |
| 5.11 | COc1cc(F)ccc1-c1cncc(C(=O)N[C@@H](CC(=O)O)c2ccccc2C)c1 [compound 85] |
| 5.07 | COc1ccc(F)c(-c2cncc(C(=O)N[C@@H](CC(=O)O)c3ccccc3C)c2)c1 [compound 88] |

same assay, conditions: read-out: Activity [μM] (IC50, cathepsin A inhibitory activity)

| SMILES | IC50 [µM] |
| --- | --- |
| Cc1ccccc1[C@H](CC(=O)O)NC(=O)c1ccnc(-c2cccc(Cl)c2Cl)c1 [compound 123] | 3.7 |
| Cc1ccccc1[C@H](CC(=O)O)NC(=O)c1cccc(-c2cccc(C(F)(F)F)c2)n1 [compound 133] | 5.76 |
| Cc1ccccc1[C@H](CC(=O)O)NC(=O)c1cccc(-c2ccc(F)cc2)n1 [compound 135] | 1.18 |
| Cc1ccccc1[C@H](CC(=O)O)NC(=O)c1cccc(-c2ccc(Cl)cc2)n1 [compound 136] | 4.85 |
| Cc1ccc(-c2cccc(C(=O)N[C@@H](CC(=O)O)c3ccccc3C)n2)cc1 [compound 137] | 1.24 |
| Cc1ccccc1[C@H](CC(=O)O)NC(=O)c1cccc(-c2ccc(C(F)(F)F)cc2)n1 [compound 138] | 6.83 |
| Cc1ccccc1[C@H](CC(=O)O)NC(=O)c1cccc(-c2ccccc2C(F)(F)F)n1 [compound 139] | 1.09 |
| Cc1ccccc1[C@H](CC(=O)O)NC(=O)c1cccc(-c2cccc(Cl)c2)n1 [compound 140] | 1.57 |
| Cc1ccccc1[C@H](CC(=O)O)NC(=O)c1cccc(-c2cccc(C#N)c2)n1 [compound 145] | 7.46 |
| Cc1ccccc1[C@H](CC(=O)O)NC(=O)c1cccc(-c2ccc(C#N)cc2)n1 [compound 146] | 2.16 |
| Cc1ccccc1[C@H](CC(=O)O)NC(=O)c1cccc(-c2cccc(-c3ccccc3)c2)n1 [compound 147] | 3.16 |
| Cc1ccccc1[C@H](CC(=O)O)NC(=O)c1cccc(-c2ccc3c(c2)OCO3)n1 [compound 152] | 1.55 |

Other lines, results leading:

| IC50 [µM] | SMILES |
| --- | --- |
| 1.01 | Cc1ccccc1[C@H](CC(=O)O)NC(=O)c1cncc(-c2cccc(C)c2C)c1 [compound 116, (S)-3-{[5-(2,3-Dimethyl-phenyl)-pyridine-3-carbonyl]-amino}-3-o-tolyl-propionic acid] |
| 5.27 | Cc1ccc(-c2cncc(C(=O)N[C@@H](CC(=O)O)c3ccccc3C)c2)c(C)c1 [compound 117] |
| 3.62 | Cc1ccccc1[C@H](CC(=O)O)NC(=O)c1cccc(-c2ccc(F)c(Cl)c2)n1 [compound 134] |
| 4.4 | Cc1ccccc1[C@H](CC(=O)O)NC(=O)c1cccc(-c2ccc(F)cc2F)n1 [compound 149] |
| 1.02 | Cc1ccccc1[C@H](CC(=O)O)NC(=O)c1cccc(-c2cc(F)cc(F)c2)n1 [compound 150] |
| 1.18 | Cc1ccccc1[C@H](CC(=O)O)NC(=O)c1cccc(-c2ccc(F)c(F)c2)n1 [compound 151] |
| 1.19 | Cc1ccc(-c2cccc(C(=O)N[C@@H](CC(=O)O)c3ccccc3C)n2)cc1C [compound 153] |
